The target in test [1] is Histone deacetylase. The test can be described thus: Inhibition of HDAC (unknown origin) by H4 Hybrid Multi-Mode Microplate Reade. It is filed as protein assay, Homo sapiens.
Test [2] has as its target Receptor tyrosine-protein kinase erbB-2 (Homo sapiens, UniProt P04626). The test can be described thus: Inhibition of HER2 (unknown origin) at 10 ug/ml using synthetic biotinylated peptide as substrate by Wallac Victor II 1420 microplate reader method relative to control. The conditions noted are these: dose 10.0 µg/ml.
The target of test [3] is Histone deacetylase. The test can be described thus: Inhibition of HDAC (unknown origin). It is filed as protein assay, Homo sapiens.
Test [4] addresses Tubulin. The test can be described thus: Inhibition of tubulin polymerization (unknown origin) incubated for 15 mins in presence of GTP by fluorescence-based tubulin polymerization assay kit. It is filed as protein-complex assay, Homo sapiens.
The target of test [5] is T1, Histone deacetylase 1 (Homo sapiens, UniProt Q13547). Nature of the test: Inhibition of HDAC1 (unknown origin) relative to control. The conditions noted are these: concentration not given here.
Test [6] concerns the target cGMP-specific 3',5'-cyclic phosphodiesterase (Homo sapiens, UniProt O76074). Nature of the test: Inhibition of PDE5 (unknown origin) incubated for 1.5 hrs by IMAP fluorescence polarization phosphodiesterase evaluation assay. Background: In fluorescence polarisation assays a small probe gives low polarisation when free and higher when bound to something large.
The target in test [7] is T1, Histone deacetylase 1. Nature of the test: Inhibition of HDAC1 in human HeLa cell nuclear extract using Bos-Lys(acetyl)-AMC as substrate preincubated for 5 mins followed by substrate addition incubated for 30 mins. It is filed as cell-free.
For test [8], the system named is Epidermal growth factor receptor (Homo sapiens), P00533 [UNDEFINED MUTATION]. The test can be described thus: Inhibition of EGFR T790M (unknown origin) at 1 uM incubated for 40 mins in presence of ATP relative to control.
In test [9] the target is Epidermal growth factor receptor (Homo sapiens, UniProt P00533). The test can be described thus: Inhibition of EGFR wildtype (unknown origin) incubated for 40 mins in presence of ATP.
For test [10], the target named is Ribosomal protein S6 kinase alpha-5 (Homo sapiens) (UniProt O75582). Nature of the test: Inhibition of MSK1 (unknown origin) at 1 uM relative to control.
Test [11] addresses Inhibitor of nuclear factor kappa-B kinase subunit alpha (Homo sapiens) (UniProt O15111). The test can be described thus: Inhibition of IKKa (unknown origin) at 1 uM relative to control.
Test [12] deals with Histone-lysine N-methyltransferase EZH2 (Homo sapiens, UniProt Q15910). Nature of the test: Inhibition of EZH2 (unknown origin).
Test [13] has as its target T2, Protein deacetylase HDAC6 (Homo sapiens, UniProt Q9UBN7).
T2 sequence (Q9UBN7 whole entry): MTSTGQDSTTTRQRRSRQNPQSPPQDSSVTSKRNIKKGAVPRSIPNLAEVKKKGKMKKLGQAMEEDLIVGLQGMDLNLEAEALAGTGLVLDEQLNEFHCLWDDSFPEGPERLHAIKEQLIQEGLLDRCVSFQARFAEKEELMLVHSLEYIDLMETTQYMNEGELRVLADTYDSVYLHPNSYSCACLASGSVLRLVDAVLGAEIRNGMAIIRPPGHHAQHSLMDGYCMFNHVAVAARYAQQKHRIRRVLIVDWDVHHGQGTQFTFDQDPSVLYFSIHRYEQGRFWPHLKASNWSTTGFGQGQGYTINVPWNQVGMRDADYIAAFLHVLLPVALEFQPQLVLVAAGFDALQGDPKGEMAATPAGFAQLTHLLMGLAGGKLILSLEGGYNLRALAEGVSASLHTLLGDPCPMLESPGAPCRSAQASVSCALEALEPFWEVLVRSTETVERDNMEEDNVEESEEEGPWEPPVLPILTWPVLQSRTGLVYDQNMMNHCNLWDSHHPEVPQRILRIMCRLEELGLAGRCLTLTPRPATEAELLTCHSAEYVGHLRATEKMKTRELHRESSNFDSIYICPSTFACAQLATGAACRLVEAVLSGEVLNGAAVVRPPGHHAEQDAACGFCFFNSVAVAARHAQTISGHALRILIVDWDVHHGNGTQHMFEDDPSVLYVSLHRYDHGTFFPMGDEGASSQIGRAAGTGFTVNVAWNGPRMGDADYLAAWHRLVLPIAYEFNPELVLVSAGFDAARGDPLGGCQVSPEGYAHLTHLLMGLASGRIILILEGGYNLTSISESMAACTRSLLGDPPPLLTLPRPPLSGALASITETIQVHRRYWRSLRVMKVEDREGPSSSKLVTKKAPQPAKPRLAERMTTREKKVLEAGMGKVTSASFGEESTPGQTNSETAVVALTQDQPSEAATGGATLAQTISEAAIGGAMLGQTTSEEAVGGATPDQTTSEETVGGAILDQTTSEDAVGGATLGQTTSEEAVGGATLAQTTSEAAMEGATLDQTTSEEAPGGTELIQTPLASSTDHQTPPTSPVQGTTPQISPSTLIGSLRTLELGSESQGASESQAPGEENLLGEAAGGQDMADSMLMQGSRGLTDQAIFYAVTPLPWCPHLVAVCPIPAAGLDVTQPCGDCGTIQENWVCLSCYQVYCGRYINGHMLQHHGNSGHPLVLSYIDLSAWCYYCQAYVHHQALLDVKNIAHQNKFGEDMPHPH
Nature of the test: Inhibition of HDAC6 (unknown origin) using fluorogenic substrate incubated for 30 mins by fluorometric drug discovery assay kit method.

Test [14] deals with T2, Protein deacetylase HDAC6. Nature of the test: Inhibition of HDAC-6 (unknown origin) expressed in Escherichia coli BL21 (DE3) in HeLa nuclear extract using Boc-Lys(TFA)-AMC as substrate preincubated for 5 mins followed by substrate addition measured after 30 mins […].
In test [15] the test system is PC-3. Nature of the test: Antiproliferative activity against human PC-3 cells incubated for 48 hrs by Sulforhodamine B staining method. It is filed as functional, cell-based. As to conditions: PC-3, 48 h. (In general: Sulforhodamine B stains cellular protein and so reports cell mass.)
The test system of test [16] is DU-145. Nature of the test: Antiproliferative activity against human DU-145 cells incubated for 48 hrs by Sulforhodamine B staining method. As to conditions: DU-145, 48 h. It is filed as functional, cell-based.
The test system of test [17] is MCF7. Nature of the test: Cytotoxicity against human MCF7 cells. It is filed as functional, cell-based.
Test [18] has as its target Histone deacetylase 8 (Homo sapiens, UniProt Q9BY41). Nature of the test: Inhibition of HDAC8 (unknown origin).
Test [19] has as its target T2, Protein deacetylase HDAC6. Nature of the test: Inhibition of HDAC6 (unknown origin).
Test [20] has as its system Panel NCI-60 (60 carcinoma cell lines). Nature of the test: Cytotoxicity against human Panel NCI-60 (60 carcinoma cell lines). It is filed as functional, cell-based.
For test [21], the target named is T1, Histone deacetylase 1. The test can be described thus: Inhibition of HDAC1 (unknown origin).

As usually defined, the IC50 is the midpoint of a concentration-inhibition curve. As usually defined, the inhibition is how much of the control response was suppressed.

Bounds are passed on as bounds.

T1 sequence (Q13547 whole entry): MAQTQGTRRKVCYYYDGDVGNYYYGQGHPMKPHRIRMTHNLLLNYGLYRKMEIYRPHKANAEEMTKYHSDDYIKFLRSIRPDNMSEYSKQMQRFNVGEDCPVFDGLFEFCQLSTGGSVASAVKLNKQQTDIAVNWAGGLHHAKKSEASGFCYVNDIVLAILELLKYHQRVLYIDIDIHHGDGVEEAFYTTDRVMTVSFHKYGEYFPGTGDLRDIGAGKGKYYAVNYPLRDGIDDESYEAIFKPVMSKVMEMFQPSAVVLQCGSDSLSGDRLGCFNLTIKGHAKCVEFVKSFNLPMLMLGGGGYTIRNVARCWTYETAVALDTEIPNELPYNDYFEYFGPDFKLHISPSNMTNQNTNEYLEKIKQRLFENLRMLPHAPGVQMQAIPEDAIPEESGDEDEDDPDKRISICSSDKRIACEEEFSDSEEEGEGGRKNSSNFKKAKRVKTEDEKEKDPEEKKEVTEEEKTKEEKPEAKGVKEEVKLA
Chain of Histone deacetylase 8 (Q9BY41 whole entry): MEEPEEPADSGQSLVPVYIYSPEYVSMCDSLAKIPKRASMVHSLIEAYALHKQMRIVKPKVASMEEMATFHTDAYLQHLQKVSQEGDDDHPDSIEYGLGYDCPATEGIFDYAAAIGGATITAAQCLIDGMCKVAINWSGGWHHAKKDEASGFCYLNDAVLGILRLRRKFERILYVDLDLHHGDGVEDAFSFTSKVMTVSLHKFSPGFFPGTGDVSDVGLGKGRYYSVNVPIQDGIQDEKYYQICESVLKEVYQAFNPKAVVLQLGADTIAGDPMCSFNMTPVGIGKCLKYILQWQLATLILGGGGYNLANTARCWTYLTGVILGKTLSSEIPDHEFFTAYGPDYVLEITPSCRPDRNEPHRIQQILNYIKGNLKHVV
Chain of Receptor tyrosine-protein kinase erbB-2 (P04626 whole entry): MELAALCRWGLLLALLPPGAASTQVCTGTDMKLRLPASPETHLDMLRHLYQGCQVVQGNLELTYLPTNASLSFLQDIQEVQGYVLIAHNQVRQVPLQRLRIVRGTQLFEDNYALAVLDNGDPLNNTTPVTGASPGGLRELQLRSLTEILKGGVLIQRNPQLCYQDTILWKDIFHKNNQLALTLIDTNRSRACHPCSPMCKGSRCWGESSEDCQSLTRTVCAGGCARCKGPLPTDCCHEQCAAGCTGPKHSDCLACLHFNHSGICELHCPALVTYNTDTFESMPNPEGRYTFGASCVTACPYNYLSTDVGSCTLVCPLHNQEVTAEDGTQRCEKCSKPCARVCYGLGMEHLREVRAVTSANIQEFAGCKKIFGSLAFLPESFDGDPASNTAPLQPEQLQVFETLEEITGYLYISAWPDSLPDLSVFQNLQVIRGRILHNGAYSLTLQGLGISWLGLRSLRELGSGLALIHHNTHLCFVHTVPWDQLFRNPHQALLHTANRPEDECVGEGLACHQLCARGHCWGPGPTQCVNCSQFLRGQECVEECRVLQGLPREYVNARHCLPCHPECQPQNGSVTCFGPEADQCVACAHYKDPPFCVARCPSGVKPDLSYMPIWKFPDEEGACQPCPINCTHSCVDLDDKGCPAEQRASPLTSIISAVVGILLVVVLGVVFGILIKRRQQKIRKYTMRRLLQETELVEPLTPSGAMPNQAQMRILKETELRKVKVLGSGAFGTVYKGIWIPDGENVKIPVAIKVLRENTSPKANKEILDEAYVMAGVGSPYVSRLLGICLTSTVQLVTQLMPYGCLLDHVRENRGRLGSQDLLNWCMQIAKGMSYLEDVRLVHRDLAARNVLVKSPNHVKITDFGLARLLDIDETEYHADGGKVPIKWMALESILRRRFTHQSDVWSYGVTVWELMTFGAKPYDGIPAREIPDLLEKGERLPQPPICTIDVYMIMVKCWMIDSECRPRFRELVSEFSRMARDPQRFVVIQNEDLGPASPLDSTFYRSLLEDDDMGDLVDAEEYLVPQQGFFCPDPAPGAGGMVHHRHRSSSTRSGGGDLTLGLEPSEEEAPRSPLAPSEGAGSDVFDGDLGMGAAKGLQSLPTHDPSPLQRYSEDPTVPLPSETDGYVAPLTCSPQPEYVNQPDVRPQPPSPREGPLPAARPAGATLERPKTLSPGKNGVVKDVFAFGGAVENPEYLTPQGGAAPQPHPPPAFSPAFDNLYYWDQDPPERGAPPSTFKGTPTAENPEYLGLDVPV
Chain of Ribosomal protein S6 kinase alpha-5 (Homo sapiens) (O75582 whole entry, looked up): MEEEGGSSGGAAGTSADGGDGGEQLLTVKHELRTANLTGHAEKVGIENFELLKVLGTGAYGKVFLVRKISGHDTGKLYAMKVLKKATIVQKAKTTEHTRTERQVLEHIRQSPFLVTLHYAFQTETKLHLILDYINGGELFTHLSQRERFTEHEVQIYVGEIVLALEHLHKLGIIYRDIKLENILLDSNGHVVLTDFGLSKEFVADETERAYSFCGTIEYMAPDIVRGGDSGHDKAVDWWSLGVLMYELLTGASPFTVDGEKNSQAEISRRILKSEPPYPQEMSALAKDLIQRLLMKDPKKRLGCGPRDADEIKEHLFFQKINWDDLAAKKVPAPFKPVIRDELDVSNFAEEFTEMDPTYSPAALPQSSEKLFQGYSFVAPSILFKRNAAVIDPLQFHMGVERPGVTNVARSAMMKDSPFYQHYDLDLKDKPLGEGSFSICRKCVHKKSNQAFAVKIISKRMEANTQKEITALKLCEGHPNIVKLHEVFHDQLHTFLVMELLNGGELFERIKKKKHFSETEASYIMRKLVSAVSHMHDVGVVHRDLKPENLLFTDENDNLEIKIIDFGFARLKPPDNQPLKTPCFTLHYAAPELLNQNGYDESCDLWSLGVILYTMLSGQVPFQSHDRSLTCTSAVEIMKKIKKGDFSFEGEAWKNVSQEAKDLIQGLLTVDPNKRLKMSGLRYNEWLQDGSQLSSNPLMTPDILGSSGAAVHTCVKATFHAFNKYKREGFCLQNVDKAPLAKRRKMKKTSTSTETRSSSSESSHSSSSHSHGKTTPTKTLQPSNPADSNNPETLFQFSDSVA
Chain of Epidermal growth factor receptor (P00533 whole entry): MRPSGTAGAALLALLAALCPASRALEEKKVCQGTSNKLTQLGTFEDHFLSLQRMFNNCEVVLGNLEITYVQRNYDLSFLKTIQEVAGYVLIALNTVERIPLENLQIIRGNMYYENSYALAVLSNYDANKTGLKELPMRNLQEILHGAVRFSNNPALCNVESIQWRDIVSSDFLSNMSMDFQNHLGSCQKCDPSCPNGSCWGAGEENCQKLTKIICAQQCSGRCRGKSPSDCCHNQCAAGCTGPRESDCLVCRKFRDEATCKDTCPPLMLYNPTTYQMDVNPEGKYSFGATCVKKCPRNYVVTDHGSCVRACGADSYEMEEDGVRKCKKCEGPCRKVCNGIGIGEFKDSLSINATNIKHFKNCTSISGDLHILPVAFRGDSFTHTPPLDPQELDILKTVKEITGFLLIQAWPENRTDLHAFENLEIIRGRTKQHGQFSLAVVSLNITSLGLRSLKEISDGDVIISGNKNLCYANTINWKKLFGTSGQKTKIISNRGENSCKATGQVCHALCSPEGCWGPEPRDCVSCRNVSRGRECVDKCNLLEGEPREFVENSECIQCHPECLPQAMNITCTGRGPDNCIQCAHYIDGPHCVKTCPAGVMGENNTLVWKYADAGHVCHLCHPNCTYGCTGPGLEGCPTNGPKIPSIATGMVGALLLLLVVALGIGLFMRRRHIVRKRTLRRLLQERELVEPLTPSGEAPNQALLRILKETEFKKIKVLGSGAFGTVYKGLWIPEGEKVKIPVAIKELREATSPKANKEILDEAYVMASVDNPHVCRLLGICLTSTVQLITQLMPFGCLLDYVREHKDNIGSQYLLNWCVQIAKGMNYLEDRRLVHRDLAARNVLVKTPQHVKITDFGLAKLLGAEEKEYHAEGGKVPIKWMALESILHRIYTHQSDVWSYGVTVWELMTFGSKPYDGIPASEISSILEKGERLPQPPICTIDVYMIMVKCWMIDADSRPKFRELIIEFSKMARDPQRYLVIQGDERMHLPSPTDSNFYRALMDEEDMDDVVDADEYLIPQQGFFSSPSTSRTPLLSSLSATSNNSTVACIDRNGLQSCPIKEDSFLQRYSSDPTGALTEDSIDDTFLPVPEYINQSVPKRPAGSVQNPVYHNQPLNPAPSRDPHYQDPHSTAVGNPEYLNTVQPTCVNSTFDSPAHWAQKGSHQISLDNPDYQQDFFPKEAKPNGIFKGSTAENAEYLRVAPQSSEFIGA
Chain of Histone-lysine N-methyltransferase EZH2 (Q15910 whole entry): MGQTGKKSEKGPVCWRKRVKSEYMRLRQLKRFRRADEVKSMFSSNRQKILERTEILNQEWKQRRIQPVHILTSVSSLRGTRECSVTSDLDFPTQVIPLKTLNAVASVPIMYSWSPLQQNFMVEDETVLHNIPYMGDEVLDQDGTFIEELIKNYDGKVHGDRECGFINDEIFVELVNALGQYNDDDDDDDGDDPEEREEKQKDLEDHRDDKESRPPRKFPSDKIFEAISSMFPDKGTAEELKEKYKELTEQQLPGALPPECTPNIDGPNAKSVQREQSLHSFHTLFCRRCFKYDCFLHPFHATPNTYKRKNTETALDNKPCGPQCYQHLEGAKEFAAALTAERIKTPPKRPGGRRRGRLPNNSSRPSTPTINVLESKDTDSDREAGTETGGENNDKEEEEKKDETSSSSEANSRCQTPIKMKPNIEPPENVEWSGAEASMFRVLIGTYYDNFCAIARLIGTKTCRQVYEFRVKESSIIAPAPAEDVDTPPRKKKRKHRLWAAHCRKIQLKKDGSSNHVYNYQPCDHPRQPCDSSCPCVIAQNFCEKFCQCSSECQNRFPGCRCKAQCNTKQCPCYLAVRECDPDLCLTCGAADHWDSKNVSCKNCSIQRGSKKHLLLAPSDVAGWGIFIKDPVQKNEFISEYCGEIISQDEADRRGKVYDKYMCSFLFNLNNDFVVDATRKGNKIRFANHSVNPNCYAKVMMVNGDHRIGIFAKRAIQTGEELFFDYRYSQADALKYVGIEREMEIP

In test [1], `O=C(CCCCCN1CC(=O)N2[C@@H](CC3c4ccccc4NC3[C@@H]2c2ccc(Br)cc2)C1=O)NO` (some centres undefined) displayed an IC50 of 0.0612 µM.
In [2], `COCCOc1cc2ncnc(Nc3ccc(/C=C/C(=O)NO)cc3)c2cc1OCCOC` showed an inhibition of 64.2%.
`NC(=O)c1cc(Oc2ccc(NC(=O)c3ccc(Cl)c(C(F)(F)F)c3)cc2)ccc1N` came in with a half-maximal inhibitory concentration (IC50) in [3] of 2.79 µM.
On to `C[C@H]1COc2c(N3CCN(C)CC3)c(F)cc3c(=O)c(C(=O)NCc4cn(CCCCCCC(=O)NO)nn4)cn1c23`, for which the half-inhibitory concentration (IC50) in [4] was 1.79 µM.
Take `C[C@H]1COc2c(N3CCN(C)CC3)c(F)cc3c(=O)c(C(=O)OCc4cn(CCCCCCC(=O)NO)nn4)cn1c23`: in test [4], the IC50 stood at 1.84 µM.
Compound `O=C(CCn1cc(CCn2nc3c(Br)c(Br)c(Br)c(Br)c3n2)nn1)NO` gave an inhibition in [5] of 97%.
Turning to `O=C(CCCCCCN1CC(=O)N2[C@H](CC3c4ccccc4NC3[C@H]2c2ccc(Br)cc2)C1=O)NO` (some centres undefined), the IC50 in test [6] is 0.0462 µM; in test [1], 0.0142 µM.
On to `COc1cc(NC(=O)CCCCCCC(=O)NO)ccc1Nc1nccc(-c2cn(C)c3ccccc23)n1`, for which the concentration for half-maximal inhibition (IC50) in [7] came out at 0.085 µM; in [9], 5.9 µM. Also, the inhibition in [8] came out at 15%.
In the case of `CCN1CCN(Cc2ccc(Nc3ncc(F)c(-c4cc(F)c5nc(C)n(C(C)C)c5c4)n3)nc2)CC1`, the inhibition in [10] amounted to 1%; in test [11] it was 80%.
`CNC(=O)c1cc(Oc2ccc(NC(=O)c3ccc(N)cc3)cc2)ccc1N` displayed an IC50 in test [3] of 2.27 µM.
For `Cc1cc(C)c(CNC(=O)c2cc(C)n(-c3ccccc3)c2C)c(=O)[nH]1`, in test [12], the half-inhibitory concentration (IC50) amounted to 15.4 µM.
In test [13], `CN(C)c1nc2c(Br)c(Br)c(Br)c(Br)c2n1CCCCCC(=O)NO` registered an IC50 of 0.86 µM.
Take `CNC(=O)c1cc(Oc2ccc(NC(=O)c3cccc(O)c3)cc2)ccc1N`: the half-inhibitory concentration (IC50) in test [3] came to 1.95 µM.
Regarding `O=C(CCCCCNC(=O)c1cccc2cc3ccccc3nc12)NO`, in test [14], the IC50 is 0.0023 µM.
Take `CN(C)CCNC(=O)c1cccc2cc3ccccc3nc12`: the IC50 is 1.86 µM in test [15] and 2 µM in test [16].
On to `COc1cc2/c(=N/c3ccc(Br)cc3F)nc[nH]c2cc1OCC1CCN(C)CC1` [VANDETANIB], for which the IC50 in test [17] is 18.5 µM; in test [3], above 10 µM.
Take `CN(CCOc1no[n+]([O-])c1S(=O)(=O)c1ccccc1)C(=O)c1ccc(/C=C/C(=O)NO)cc1`: the half-maximal inhibitory concentration (IC50) in test [18] was 0.26 µM; in test [19], 0.16 µM.
For the compound `Cn1c(CCCCCCC(=O)NO)nc2cc(N(CCCl)CCCl)ccc21` [TINOSTAMUSTINE], the half-inhibitory concentration (IC50) came out at 2.2 µM in test [20] and 0.01 µM in test [21].
Turning to `CNC(=O)c1cc(Oc2ccc(NC(=O)c3cccnc3)cc2)ccc1N`, the half-maximal inhibitory concentration (IC50) in test [3] came to 5.23 µM.
On the same count and under the same terms, in the case of `CNC(=O)c1cc(Oc2ccc(NC(=O)c3ccc4ccccc4c3)cc2)ccc1N` it was 8.21 µM.
With `C[C@H]1COc2c(N3CCN(C)CC3)c(F)cc3c(=O)c(C(=O)NCc4cn(CCCCCCCC(=O)NO)nn4)cn1c23`, the IC50 in test [4] was 6.68 µM.

These data come from ChEMBL document CHEMBL5214883, “Comprehensive review for anticancer hybridized multitargeting HDAC inhibitors” (Eur J Med Chem, 2021).
